Assay results taken from ChEMBL document CHEMBL1142248, “Structure-activity relationships and pharmacokinetic parameters of quinoline acylsulfonamides as potent and selective antagonists of the EP(4) receptor” (Bioorg Med Chem Lett, 2008).

Tests used:
[1] = Half life in rat at 5 mg/kg, iv; format: ADME, organism-based; parameters: dose 5 mg/kg, route intravenous; conditions: in vivo
[2] = Volume of distribution at steady state in rat at 20 mg/kg, po or 5 mg/kg, iv; format: ADME, organism-based; conditions: in vivo, read-out: Vdss
[3] = Bioavailability in rat at 20 mg/kg, po or 5 mg/kg, iv; format: ADME, organism-based; conditions: in vivo
[4] = Clearance in dog at 10 mg/kg, po or 2 mg/kg, iv; format: ADME, organism-based, Canis lupus familiaris; conditions: in vivo
[5] = Bioavailability in dog at 10 mg/kg, po or 2 mg/kg, iv; format: ADME, organism-based, Canis lupus familiaris; conditions: in vivo
[6] = Clearance in rat at 20 mg/kg, po or 5 mg/kg, iv; format: ADME, organism-based; conditions: in vivo
[7] = Clearance in guinea pig at 20 mg/kg, po or 5 mg/kg, iv; format: ADME, organism-based, Cavia porcellus; conditions: in vivo
[8] = Volume of distribution at steady state in dog at 10 mg/kg, po or 2 mg/kg, iv; format: ADME, organism-based, Canis lupus familiaris; conditions: in vivo, read-out: Vdss
[9] = Volume of distribution at steady state in guinea pig at 20 mg/kg, po or 5 mg/kg, iv; format: ADME, organism-based, Cavia porcellus; conditions: in vivo, read-out: Vdss
[10] = Half life in dog at 2 mg/kg, iv; format: ADME, organism-based, Canis lupus familiaris; parameters: dose 2 mg/kg, route intravenous; conditions: in vivo
[11] = Half life in guinea pig at 5 mg/kg, iv; format: ADME, organism-based, Cavia porcellus; parameters: dose 5 mg/kg, route intravenous; conditions: in vivo
[12] = Bioavailability in guinea pig at 20 mg/kg, po or 5 mg/kg, iv; format: ADME, organism-based, Cavia porcellus; conditions: in vivo
[13] = target: T1, Prostaglandin E2 receptor EP4 subtype (Homo sapiens, UniProt P35408); test: Binding affinity to human EP4 receptor expressed in HEK293 cells in presence of 10% human serum; format: cell-based
[14] = target: T1, Prostaglandin E2 receptor EP4 subtype; test: Binding affinity to human EP4 receptor expressed in HEK293 cells; format: cell-based
[15] = target: Prostaglandin E2 receptor EP2 subtype (Homo sapiens, UniProt P43116); test: Binding affinity to human EP2 receptor expressed in HEK293 cells; format: cell-based
[16] = target: T2, Prostaglandin E2 receptor EP1 subtype (Homo sapiens, UniProt P34995); test: Binding affinity to human EP1 receptor expressed in HEK293 cells; format: cell-based
T2 sequence (P34995 whole entry): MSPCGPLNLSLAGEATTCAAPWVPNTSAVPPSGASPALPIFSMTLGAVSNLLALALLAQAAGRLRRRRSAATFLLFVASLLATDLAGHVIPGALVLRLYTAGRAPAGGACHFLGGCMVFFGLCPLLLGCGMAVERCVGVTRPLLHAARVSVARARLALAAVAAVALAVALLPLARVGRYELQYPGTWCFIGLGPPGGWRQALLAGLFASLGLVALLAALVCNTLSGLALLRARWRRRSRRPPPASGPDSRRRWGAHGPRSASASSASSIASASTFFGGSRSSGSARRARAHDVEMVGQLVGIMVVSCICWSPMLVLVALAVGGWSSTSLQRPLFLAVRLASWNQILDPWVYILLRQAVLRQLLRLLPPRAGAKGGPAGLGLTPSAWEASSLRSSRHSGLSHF

[17] = target: T3, Thromboxane A2 receptor (Homo sapiens, UniProt P21731); test: Binding affinity to human TP receptor expressed in HEK293 cells; format: cell-based
T3 sequence (P21731 whole entry): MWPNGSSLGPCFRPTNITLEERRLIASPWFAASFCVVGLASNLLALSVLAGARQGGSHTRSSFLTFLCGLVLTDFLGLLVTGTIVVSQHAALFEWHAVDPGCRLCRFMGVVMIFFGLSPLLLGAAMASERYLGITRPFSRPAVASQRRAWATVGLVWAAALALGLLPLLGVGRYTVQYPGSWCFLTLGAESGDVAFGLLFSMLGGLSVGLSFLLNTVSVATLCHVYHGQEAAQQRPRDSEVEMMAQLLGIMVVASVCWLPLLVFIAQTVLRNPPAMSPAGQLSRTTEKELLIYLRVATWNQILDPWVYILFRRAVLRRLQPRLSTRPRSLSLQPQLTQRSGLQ

[18] = target: Prostaglandin F2-alpha receptor (Homo sapiens, UniProt P43088); test: Binding affinity to human FP receptor expressed in HEK293 cells; format: cell-based
[19] = target: T4, Prostaglandin E2 receptor EP3 subtype (Homo sapiens, UniProt P43115); test: Binding affinity to human EP3 receptor expressed in HEK293 cells; format: cell-based
T4 sequence (P43115 whole entry): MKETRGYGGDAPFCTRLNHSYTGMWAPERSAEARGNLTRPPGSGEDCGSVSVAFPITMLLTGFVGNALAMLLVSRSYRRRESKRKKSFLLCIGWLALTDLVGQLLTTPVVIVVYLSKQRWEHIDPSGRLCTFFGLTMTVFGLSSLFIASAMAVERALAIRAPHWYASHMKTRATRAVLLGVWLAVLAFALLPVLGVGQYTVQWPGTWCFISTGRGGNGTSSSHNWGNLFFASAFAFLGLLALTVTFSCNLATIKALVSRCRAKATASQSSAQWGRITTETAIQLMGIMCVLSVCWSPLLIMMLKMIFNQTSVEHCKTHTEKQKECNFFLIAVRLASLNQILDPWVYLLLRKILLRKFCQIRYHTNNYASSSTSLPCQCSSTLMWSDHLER

[20] = target: T5, Prostaglandin D2 receptor (Homo sapiens, UniProt Q13258); test: Binding affinity to human DP receptor expressed in HEK293 cells; format: cell-based
T5 sequence (Q13258 whole entry): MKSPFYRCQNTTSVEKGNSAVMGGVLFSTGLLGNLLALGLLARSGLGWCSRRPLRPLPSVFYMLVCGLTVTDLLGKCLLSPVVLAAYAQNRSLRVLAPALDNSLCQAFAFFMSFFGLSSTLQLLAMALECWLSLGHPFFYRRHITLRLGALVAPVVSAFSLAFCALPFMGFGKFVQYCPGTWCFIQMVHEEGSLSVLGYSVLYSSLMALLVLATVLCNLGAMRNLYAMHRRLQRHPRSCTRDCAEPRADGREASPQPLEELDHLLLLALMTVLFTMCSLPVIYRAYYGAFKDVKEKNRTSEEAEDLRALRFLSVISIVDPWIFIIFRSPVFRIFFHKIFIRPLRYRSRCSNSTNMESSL

[21] = target: Prostacyclin receptor (Homo sapiens, UniProt P43119); test: Binding affinity to human IP receptor expressed in HEK293 cells; format: cell-based
[22] = species: Rattus norvegicus; test: Antiinflammatory activity against adjuvant-induced rat arthritis model; format: functional

T1 sequence (P35408 whole entry): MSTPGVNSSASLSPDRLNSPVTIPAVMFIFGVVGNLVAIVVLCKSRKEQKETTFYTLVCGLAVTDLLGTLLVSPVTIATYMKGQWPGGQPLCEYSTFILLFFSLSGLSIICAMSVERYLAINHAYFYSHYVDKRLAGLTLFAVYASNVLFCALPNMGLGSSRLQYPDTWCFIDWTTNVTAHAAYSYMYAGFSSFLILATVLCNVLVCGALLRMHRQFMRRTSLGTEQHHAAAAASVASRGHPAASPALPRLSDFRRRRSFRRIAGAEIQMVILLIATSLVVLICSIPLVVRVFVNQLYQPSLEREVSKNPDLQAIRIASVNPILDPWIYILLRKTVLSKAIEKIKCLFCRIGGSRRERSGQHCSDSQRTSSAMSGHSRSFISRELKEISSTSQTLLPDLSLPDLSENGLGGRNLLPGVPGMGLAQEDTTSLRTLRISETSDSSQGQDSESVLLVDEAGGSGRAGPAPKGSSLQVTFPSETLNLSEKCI
Sequence of Prostaglandin F2-alpha receptor (P43088 whole entry): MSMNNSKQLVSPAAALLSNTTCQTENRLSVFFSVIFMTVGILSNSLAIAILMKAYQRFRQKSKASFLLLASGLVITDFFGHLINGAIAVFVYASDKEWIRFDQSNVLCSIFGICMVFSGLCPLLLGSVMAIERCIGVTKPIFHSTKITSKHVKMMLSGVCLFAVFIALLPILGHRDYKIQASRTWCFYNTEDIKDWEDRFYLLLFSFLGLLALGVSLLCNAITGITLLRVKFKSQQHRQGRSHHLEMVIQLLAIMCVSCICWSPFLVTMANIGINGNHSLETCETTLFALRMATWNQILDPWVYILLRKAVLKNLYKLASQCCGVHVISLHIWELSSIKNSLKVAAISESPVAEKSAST
Sequence of Prostacyclin receptor (P43119 whole entry): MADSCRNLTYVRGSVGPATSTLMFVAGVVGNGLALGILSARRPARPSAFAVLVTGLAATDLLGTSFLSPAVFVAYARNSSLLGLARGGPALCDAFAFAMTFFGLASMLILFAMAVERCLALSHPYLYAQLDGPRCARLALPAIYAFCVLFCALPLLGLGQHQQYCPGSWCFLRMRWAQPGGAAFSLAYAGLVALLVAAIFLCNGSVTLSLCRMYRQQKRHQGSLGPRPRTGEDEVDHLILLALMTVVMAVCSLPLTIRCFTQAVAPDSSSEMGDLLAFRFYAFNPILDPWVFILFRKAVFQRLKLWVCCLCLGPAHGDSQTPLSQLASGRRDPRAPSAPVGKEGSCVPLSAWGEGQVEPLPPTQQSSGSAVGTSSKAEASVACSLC
Sequence of Prostaglandin E2 receptor EP2 subtype (P43116 whole entry): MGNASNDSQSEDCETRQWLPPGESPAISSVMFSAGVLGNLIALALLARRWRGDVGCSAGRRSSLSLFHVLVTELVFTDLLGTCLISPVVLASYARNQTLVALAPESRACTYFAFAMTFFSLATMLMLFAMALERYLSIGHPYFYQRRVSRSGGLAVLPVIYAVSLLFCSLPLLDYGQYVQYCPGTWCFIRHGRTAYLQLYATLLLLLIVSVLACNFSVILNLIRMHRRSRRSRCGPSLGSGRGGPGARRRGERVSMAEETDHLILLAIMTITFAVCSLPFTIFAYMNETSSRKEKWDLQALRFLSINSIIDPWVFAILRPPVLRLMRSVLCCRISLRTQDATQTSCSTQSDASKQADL

Ki [13] | Ki [14] | SMILES | further results
 |  | CCOc1c2c(c(OCC)c3ncccc13)CN(c1ccc(CS(=O)(=O)[N-]C(=O)Cc3ccccc3OC)cc1C)C2=O.[Na+] | half-life [1]: 2.7 h; Vd [2]: 1.6 L/kg; bioavailability [3]: > 99%; clearance [4]: 0.4 mL/min/kg; bioavailability [5]: 49%; clearance [6]: 7.8 mL/min/kg; clearance [7]: 3.6 mL/min/kg; Vd [8]: 0.1 L/kg; Vd [9]: 0.6 L/kg; half-life [10]: 4.1 h; half-life [11]: 8.6 h; bioavailability [12]: 18%
37 nM | 0.27 nM | CCOc1c2c(c(OCC)c3ncccc13)CN(c1ccc(CS(=O)(=O)NC(=O)Cc3ccccc3Cl)cc1C)C2=O | 
> 4000 nM | 0.31 nM | CCOc1c2c(c(OCC)c3ccccc13)C(=O)N(c1ccc(CS(=O)(=O)NC(=O)Cc3ccccc3)cc1)C2 | 
29 nM | 0.25 nM | CCOc1c2c(c(OCC)c3ccccc13)C(=O)N(c1ccc(CS(=O)(=O)NC(=O)Cc3ccccc3)cc1C)C2 | 
4.8 nM | 0.43 nM | CCOc1c2c(c(OCC)c3ccccc13)C(=O)N(c1ccc(CS(=O)(=O)NC(=O)Cc3cccc4ccccc34)cc1)C2 | 
> 4000 nM | 4.2 nM | CCOc1c2c(c(OCC)c3ccccc13)C(=O)N(c1ccc(CS(=O)(=O)NC(=O)CCc3ccsc3)cc1)C2 | 
8.9 nM | 0.27 nM | CCOc1ccccc1CC(=O)NS(=O)(=O)Cc1ccc(N2Cc3c(c(OCC)c4cccnc4c3OCC)C2=O)c(C)c1 | 
660 nM | 3.3 nM | CCOc1c2c(c(OCC)c3ncccc13)C(=O)N(c1ccc(CS(=O)(=O)NC(=O)Cc3ccccc3)cc1C)C2 | 
1200 nM | 0.38 nM | CCOc1c2c(c(OCC)c3ccccc13)C(=O)N(c1ccc(CS(=O)(=O)NC(=O)COc3ccccc3)cc1)C2 | 
38 nM | 0.37 nM | CCOc1c2c(c(OCC)c3ccccc13)C(=O)N(c1ccc(CS(=O)(=O)NC(=O)Cc3cc(OC)ccc3OC)cc1)C2 | 
4.2 nM | 0.55 nM | CCOc1c2c(c(OCC)c3ncccc13)CN(c1ccc(CS(=O)(=O)NC(=O)C3(c4ccccc4OC)CC3)cc1C)C2=O | 
13 nM | 0.32 nM | CCOc1c2c(c(OCC)c3ncccc13)CN(c1ccc(CS(=O)(=O)NC(=O)Cc3ccccc3OC(F)F)cc1C)C2=O | 
13 nM | 2.4 nM | CCOc1c2c(c(OCC)c3ncccc13)CN(c1ccc(CS(=O)(=O)NC(=O)Cc3ccccn3)cc1C)C2=O | 
56 nM | 0.21 nM | CCOc1c2c(c(OCC)c3ncccc13)CN(c1ccc(CS(=O)(=O)NC(=O)Cc3ccccc3OC(F)(F)F)cc1C)C2=O | 
12 nM | 0.95 nM | COc1ccccc1C1(C(=O)NS(=O)(=O)Cc2ccc(N3Cc4c(c(OCC(F)(F)F)c5cccnc5c4OCC(F)(F)F)C3=O)c(C)c2)CC1 | 
350 nM | 0.43 nM | CCOc1c2c(c(OCC)c3ncccc13)CN(c1ccc(CS(=O)(=O)NC(=O)Cc3ccccc3C(F)(F)F)cc1C)C2=O | 

Ki [13] | Ki [14] | SMILES | further results
380 nM | 0.43 nM | CCOc1c2c(c(OCC)c3ccccc13)C(=O)N(c1ccc(CS(=O)(=O)NC(=O)Cc3c(C)cc(C)cc3C)cc1)C2 | 
17 nM | 0.38 nM | COc1ccccc1CC(=O)NS(=O)(=O)Cc1ccc(N2Cc3c(c(OCC(F)(F)F)c4cccnc4c3OCC(F)(F)F)C2=O)c(C)c1 | 
4.8 nM | 0.28 nM | CCOc1c2c(c(OCC)c3ncccc13)CN(c1ccc(CS(=O)(=O)NC(=O)Cc3c(Cl)cccc3Cl)cc1C)C2=O | 
26 nM | 0.36 nM | COc1ccccc1CC(=O)NS(=O)(=O)Cc1ccc(N2Cc3c(c(OC(C)C)c4cccnc4c3OC(C)C)C2=O)c(C)c1 | 
160 nM | 9.8 nM | CCOc1c2c(c(OCC)c3ncccc13)CN(c1ccc(CS(=O)(=O)NC(=O)Cc3ccncc3)cc1C)C2=O | 
940 nM | 1 nM | CCOc1c2c(c(OCC)c3ccccc13)C(=O)N(c1ccc(CS(=O)(=O)NC(=O)C3CCCc4ccccc43)cc1)C2 (stereo not drawn) | 
3.6 nM | 0.74 nM | CCOc1c2c(c(OCC)c3ncccc13)CN(c1ccc(CS(=O)(=O)NC(=O)Cc3ccccc3OC)cc1C)C2=O | Ki [15]: 1900 nM; Ki [16]: > 7000 nM; Ki [17]: 630 nM; Ki [18]: 2000 nM; Ki [19]: 4000 nM; Ki [20]: 1200 nM; Ki [21]: > 7000 nM
34 nM | 0.48 nM | CCOc1c2c(c(OCC)c3ncccc13)CN(c1ccc(CS(=O)(=O)NC(=O)Cc3ccccc3F)cc1C)C2=O | 
600 nM | 2 nM | CCOc1c2c(c(OCC)c3ccccc13)C(=O)N(c1ccc(CS(=O)(=O)NC(=O)Cn3nccc3C)cc1)C2 | 
31 nM | 0.76 nM | CCOc1c2c(c(OCC)c3ncccc13)CN(c1ccc(CS(=O)(=O)NC(=O)Cc3ccccc3)cc1C)C2=O | 
1.6 nM | 0.79 nM | COc1cccc(OC)c1C1(C(=O)NS(=O)(=O)Cc2ccc(N3Cc4c(c(OCC(F)(F)F)c5cccnc5c4OCC(F)(F)F)C3=O)c(C)c2)CC1 | Ki [15]: 300 nM; Ki [16]: > 9000 nM; Ki [17]: 39 nM; Ki [18]: 340 nM; ED50 [22]: 0.005 mg/kg; Ki [19]: 2700 nM; Ki [20]: 53 nM; Ki [21]: 2000 nM
1600 nM | 2.4 nM | CCOc1c2c(c(OCC)c3ccccc13)C(=O)N(c1ccc(CS(=O)(=O)NC(=O)Cc3cccc(OC)c3)cc1)C2 | 
> 4000 nM | 7.9 nM | CCOc1c2c(c(OCC)c3ccccc13)C(=O)N(c1ccc(CS(=O)(=O)NC(=O)C(c3ccccc3)c3ccccc3)cc1)C2 | 
2.3 nM | 0.54 nM | CCOc1c2c(c(OCC)c3ncccc13)CN(c1ccc(CS(=O)(=O)NC(=O)C3(c4c(OC)cccc4OC)CC3)cc1C)C2=O | 
48 nM | 2.8 nM | CCOc1c2c(c(OCC)c3ncccc13)CN(c1ccc(CS(=O)(=O)NC(=O)Cc3cccnc3)cc1C)C2=O | 
 |  | CS(=O)(=O)c1ccc(C2=C(c3ccccc3)C(=O)OC2)cc1 [ROFECOXIB] | ED50 [22]: 0.74 mg/kg
